A word on the Ki: it is the dissociation constant of the complex between target and ligand, obtained from inhibition or displacement. A lower Ki goes with higher affinity.

We go through eight compounds from ChEMBL document CHEMBL5727833, “MALT1 inhibitors and uses thereof” (2020).

For this assay, the target named is T1, Mucosa-associated lymphoid tissue lymphoma translocation protein 1 (Homo sapiens, UniProt Q9UDY8).
T1 sequence (Q9UDY8 whole entry): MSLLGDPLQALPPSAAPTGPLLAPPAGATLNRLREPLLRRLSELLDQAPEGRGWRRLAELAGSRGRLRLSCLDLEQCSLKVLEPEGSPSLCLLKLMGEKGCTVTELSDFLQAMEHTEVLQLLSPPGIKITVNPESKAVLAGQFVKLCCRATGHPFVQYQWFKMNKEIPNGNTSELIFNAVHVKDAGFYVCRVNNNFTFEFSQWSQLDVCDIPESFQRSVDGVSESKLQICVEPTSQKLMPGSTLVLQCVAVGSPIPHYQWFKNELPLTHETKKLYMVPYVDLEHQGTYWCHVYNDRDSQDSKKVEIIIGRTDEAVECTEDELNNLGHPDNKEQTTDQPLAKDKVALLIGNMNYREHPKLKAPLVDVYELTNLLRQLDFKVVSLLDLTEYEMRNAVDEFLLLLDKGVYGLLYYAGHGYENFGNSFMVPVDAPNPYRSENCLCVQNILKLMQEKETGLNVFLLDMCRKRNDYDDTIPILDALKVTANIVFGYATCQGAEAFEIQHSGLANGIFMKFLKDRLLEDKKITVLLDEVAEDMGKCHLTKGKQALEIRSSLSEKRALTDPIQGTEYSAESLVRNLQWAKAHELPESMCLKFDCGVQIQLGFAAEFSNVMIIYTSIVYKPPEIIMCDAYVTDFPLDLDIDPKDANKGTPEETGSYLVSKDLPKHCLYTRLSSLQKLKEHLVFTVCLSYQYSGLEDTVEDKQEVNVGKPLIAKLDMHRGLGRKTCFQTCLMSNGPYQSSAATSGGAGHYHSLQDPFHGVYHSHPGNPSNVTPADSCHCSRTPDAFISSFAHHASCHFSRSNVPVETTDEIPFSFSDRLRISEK
The assay can be described thus: Biological Assay: For exemplary compounds of the disclosure, Ki for inhibition of MALT1 was measured (Table E11). A concentration of 100 nM MALT1 was used for the assay.

`Cc1nc(C(=O)N[C@H](C(=O)N2CCC[C@H]2C(=O)N[C@@H](CCCNC(=N)N)C(=O)CF)C(C)C)cs1` displayed a Ki of 52 nM. In turn, `CC(C)[C@H](NC(=O)c1ccc(Br)c(C#N)c1)C(=O)N1CCC[C@H]1C(=O)N[C@@H](CCCNC(=N)N)C(=O)CF` had an inhibition constant Ki of 13 nM. In the case of `N=C(N)NCCC[C@H](NC(=O)[C@@H]1CCCN1C(=O)[C@H](Cc1cccnc1)NC(=O)c1ccc(Br)cc1)C(=O)CF`, the Ki was > 1000 nM. In the case of `CC(C)[C@H](NC(=O)Nc1ccccc1Cl)C(=O)N1CCC[C@H]1C(=O)N[C@@H](CCCNC(=N)N)C(=O)CF`, affinity was put at a Ki of 24 nM.

As to `CC(C)[C@H](NC(=O)c1ccc(Br)c(F)c1)C(=O)N1CCC[C@H]1C(=O)N[C@@H](CCCNC(=N)N)C(=O)CF`, the Ki is 78 nM. The compound `CC(C)[C@H](NS(=O)(=O)c1ccc(Br)cc1)C(=O)N1CCC[C@H]1C(=O)N[C@@H](CCCNC(=N)N)C(=O)CF` had an inhibition constant Ki of 66 nM. As for `CC(C)c1ccc(C(=O)N[C@H](C(=O)N2CCC[C@H]2C(=O)N[C@@H](CCCNC(=N)N)C(=O)CF)C(C)C)cc1`, the figure is 22 nM. The value for `N=C(N)NCCC[C@H](NC(=O)[C@@H]1C[C@@H](O)CN1C(=O)[C@@H](NC(=O)c1ccc(Br)cc1)C1CCCCC1)C(=O)CF` was 34 nM.
